Experimental data: article PMC3284447, “In vivo antinociception of potent mu opioid agonist tetrapeptide analogues and comparison with a compact opioid agonist - neurokinin 1 receptor antagonist chimera” (Molecular Brain, 2012)
Entries after “also recorded” stand apart in the source; their conditions may differ.

How the values were obtained:
DOR [1] = assay: MVD (mouse vas deferens) tissue bioassay, DOR-representative; details: SBCHM01 compared to AN81, MVD EC50
Text: Aba: 4-amino-1,2,4,5-tetrahydro-2-benzazepin-3-on; BBB: blood-brain barrier; CNS: central nervous system; DML: designed multiple ligand; Dmt: 2',6'-dimethyl-(S)-tyrosine; DOR: δ-opioid receptor; GPI: Guinea pig ileum; KOR: κ-opioid receptor; MOR: μ-opioid receptor; MPE: maximal possible effect; MVD: mouse vas deferens; NK1: neurokinin 1.

DOR [2] = assay: DOR binding, displacement of [^3H]DSLET from rat brain membranes; details: SBCHM01 compared to AN81, Ki
male C57Bl6 mice [3] = assay: hot water tail-flick test, acute antinociception after i.v. administration; assay type: in vivo, mouse; details: i.v.; for %MPE: 120 min, ± SEM
Procedure: (§1) Nociceptive responses to thermally-induced pain were assessed by the hot water tail-flick test using male C57Bl6 mice. Animals (weighing 25-28 g) were maintained on a normal light-dark cycle and testing occurred during the light cycle. Mice were injected intravenously (i.v.) with the examined drug, dissolved in saline, at different doses. For the verification of drug-induced antinociceptive tolerance, the investigated compounds were administered (i.v.) once per day for 5 days (2 and 4 mg/kg for SBCHM01 and 4 mg/kg for both AN81 and BVD03) and the analgesic effect was measured on the first and the fifth day of the experiment. In each case (both acute and chronic treatment) the effect was measured over a minimum time period of 120 minutes. The antinociceptive effect was measured in triplicate at the following time points post-injection: 5, 15, 30, 60, 120 min (and 180 min for SBCHM01; due to the strong and long-lasting analgesic effect produced by AN81 (Figure 2C), there was no possibility to prolong the experiment, which - if prolonged - could in consequence cause major damage to the animal's tail, thus giving spurious nociceptive responses). Responses to thermal hot stimulus were assessed by the latency with which the mouse removed its tail from 55°C water. A cut-off time of 10 s was used in order to prevent tissue damage.
(§2) In order to compare the antinociceptive effect induced by the examined drugs, morphine was used as a standard reference.
(§3) Data are presented as means ± standard errors of the mean (SEM). All of the calculations and statistical analysis were performed using Prism 5.0 (Graph Pad Software, San Diego, CA, USA). The nociceptive scores were analyzed using a two-way Anova with Bonferroni's post hoc test. The p value (the value of probability) as well as inferential statistics - F test, which include information about the obtained magnitude or value of the test statistic and degrees of freedom, are represented.

male C57Bl6 mice [4] = assay: hot water tail-flick test, tolerance after daily i.v. administration for 5 days; assay type: in vivo, mouse
Procedure: as §1, §2, §3

NK1R = details: calculated using the Schild's equation; cited from earlier work
Text: Table 1 In vitro functional activities and affinities of opioid- and opioid-NK1 ligands | column: NK1R pA2^a

hNK1R = details: [^3H]-SP, hNK1-CHO membranes; means ± SEM of three independent experiments; one site competition fitting; cited from earlier work
Text: Table 1 In vitro functional activities and affinities of opioid- and opioid-NK1 ligands | column: hNK1R Ki (nM)^b

MOR [5] = system: MOR; parameters: method as in PMID 21413804; details: GPI tissue bioassay; means of 3-6 experiments ± SEM; cited from earlier work
DOR [6] = system: DOR; parameters: method as in PMID 21413804; details: MVD tissue bioassay; means of 3-6 experiments ± SEM; cited from earlier work
KOR = details: [^3H]U69,593, guinea pig brain membrane; cited from earlier work
Text: Table 1 In vitro functional activities and affinities of opioid- and opioid-NK1 ligands | column: KOR Ki (nM)^e, f

MOR [7] = target: MOR; parameters: method as in PMID 21413804; details: [^3H]DAMGO, rat brain membrane; cited from earlier work
DOR [8] = target: DOR; parameters: method as in PMID 21413804; details: [^3H]DSLET, rat brain membrane; cited from earlier work
rodents = details: administered centrally or peripherally in rodents; cited from earlier work
Text: From our previous results, we selected three opioid tetrapeptides with promising in vitro potency for further in vivo evaluation. […] We recently identified the opioid ligands H-Dmt-NMe-D ...

MOR [9] = system: MOR; parameters: method as in PMID 8981054, PMID 7712029; details: cited from earlier work

Substance	fold decrease in DOR potency vs AN81 (DOR [1]) [fold]	fold decrease in DOR binding vs AN81 (DOR [2]) [fold]	%MPE (male C57Bl6 mice [3]; 2 mg/kg, first day of treatment) [%]	%MPE (male C57Bl6 mice [3]; 4 mg/kg, vs morphine: BVD03 p < 0.05, SBCHM01 p > 0.05) [%]	antinociceptive activity relative to morphine (male C57Bl6 mice [3]; 4 mg/kg, whole period of measurements, morphine i.p. same dose)	synergistic or potentiating effect of combined pharmacophores (male C57Bl6 mice [3]; opioid and NK1 pharmacophores in a single entity)	tolerance development after repetitive administration (male C57Bl6 mice [4]; daily for 5 days, i.v. (morphine i.p.), measured on day 5)	%MPE (male C57Bl6 mice [4]; day 1, i.v., 2 mg/kg, 3 h, ± SEM) [%]	potency at 180 min (male C57Bl6 mice [4]; day 1, SBCHM01 2 mg/kg i.v., morphine 4 mg/kg i.p.)	antinociceptive activity on the fifth day (male C57Bl6 mice [4]; day 5, i.v., 2 mg/kg daily, up to 3 h)	%MPE (male C57Bl6 mice [4]; day 5, i.v., 4 mg/kg daily, 30 min, ± SEM (AN81 7-10 animals, p < 0.001; SBCHM01 8-10 mice)) [%]	NK1R pA2 (NK1R)	Ki (hNK1R) [nM]	EC50 (MOR [5]) [nM]	EC50 (DOR [6]) [nM]	Ki (KOR) [nM]	Ki (MOR [7]) [nM]	Ki (DOR [8]) [nM]	tolerance development compared to morphine (rodents)	affinity and selectivity for the MOR (MOR [9])
H-Dmt-D-Arg-Aba-Gly-NMe-3',5'-Bn(CF3)2 [SBCHM01]	103	17	85.12 ± 5.43	80.47 ± 5.29	slightly weaker during the whole period of measurements	neither an synergistic nor potentiating antinociceptive effect appears	could not circumvent opioid induced tolerance; also recorded: mice had developed opioid-induced tolerance; also recorded: lower dose of SBCHM01 does not reduce the extent of tolerance development; also recorded: complete loss in antinociception on the fifth day of the experiment; also recorded: lost its antinociceptive potency completely upon chronic injection	71.13 ± 4.71	decrease in potency is clearly visible	Complete abolishment of SBCHM01's antinociceptive activity on the fifth day	12.25 ± 7.33	7.8	0.5 ± 0.1	8.51 ± 0.62	43.3 ± 6.3	445 ± 81	0.416 ± 0.012	10.4 ± 0.6		
H-Tyr-D-Ala-Phe-Gly-Tyr-Pro-Ser-NH2 [dermorphin]																			induces less tolerance development when compared to morphine	high affinity and selectivity for the MOR
